From PubChem BioAssay AID720588 (Broad Institute, 2013)
Active and inactive are the calls of the source.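 Rule for the calls: active = fitted curve falls past a set limit of signal loss at no more than twice the top dose; inconclusive = flat fit between 30 and 70% signal loss, or poor fit; inactive = signal rise, flat within 30%, or crossing too high.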

experiment: HEK293T cell cytotoxicity, dose response, cytotoxicity control, CellTiter-Glo luminescence, cherry-pick, set 3 (AID 720588); details: HEK293T viability, CellTiter-Glo ATP luminescence, 72 h; at 26 µM (top of the series)

Question: Which activity change, negative = cytotoxicity does the source give for `CC(C)c1ccccc1NC(=O)COC(=O)CCN1C(=O)/C(=C\C=C\c2ccccc2)SC1=S` here?
Answer: Its activity change, negative = cytotoxicity is -10.7% (inactive).

Question: Which activity change, negative = cytotoxicity does the source give for `CC(C)c1ccc(OCc2cccc(C(=O)N/N=C/c3cccnc3)c2)cc1` here?
Answer: The activity change, negative = cytotoxicity was -18.1% (inactive).

Question: With `COc1ccc(S(=O)(=O)N2CCCc3nc(-c4ccc(F)cc4)ccc32)cc1` as the compound, how does the activity change, negative = cytotoxicity read?
Answer: The activity change, negative = cytotoxicity was -5.94% (inactive).

Question: Which activity change, negative = cytotoxicity does the source give for `COC(=O)Cc1ccc(NC(=O)c2ccccc2Cl)cc1` here?
Answer: Its activity change, negative = cytotoxicity is -2.38% (inactive).

Question: Which activity change, negative = cytotoxicity does the source give for `COc1ccc(CCC(C)NCC2CCCCC2)cc1` (stereo not drawn) here?
Answer: Its activity change, negative = cytotoxicity is 4.78% (inactive).

Question: With `C[C@H]1CN([C@@H](C)CO)C(=O)c2cccc(NC(=O)c3ccc(-c4nccs4)cc3)c2O[C@@H]1CN(C)Cc1ccc(C(=O)Nc2ccccc2N)cc1` as the compound, how does the activity change, negative = cytotoxicity read?
Answer: The activity change, negative = cytotoxicity was 28.9% (inactive).

Question: Which activity change, negative = cytotoxicity does the source give for `CCOc1ccc(OCc2ccc(C(=O)NN=Cc3ccc[nH]3)cc2)cc1` here?
Answer: Its activity change, negative = cytotoxicity is -39.9% (inactive).

Question: Which activity change, negative = cytotoxicity does the source give for `O=C(N/N=C/c1cccs1)c1n[nH]c2c1CCCC2` here?
Answer: Its activity change, negative = cytotoxicity is -10.2% (inactive).

Question: Which activity change, negative = cytotoxicity does the source give for `Nc1ccc(-c2cc3ccccc3oc2=O)cc1` here?
Answer: Its activity change, negative = cytotoxicity is -22% (inactive).

Question: For `COc1cc(OC)cc(-c2cc3nc(C)c(CCC(=O)O)c(C)n3n2)c1`, which activity change, negative = cytotoxicity is on record?
Answer: Its activity change, negative = cytotoxicity is 11.4% (inactive).

Question: With `Cc1nc2ncccn2c1-c1csc(Nc2ccc(O)cc2)n1` as the compound, how does the activity change, negative = cytotoxicity read?
Answer: The activity change, negative = cytotoxicity was 23.7% (inactive).

Question: For `Cc1ccc2oc(/N=C(\N)NC(=O)C(C)(C)C)nc2c1`, which activity change, negative = cytotoxicity is on record?
Answer: Its activity change, negative = cytotoxicity is -11% (inactive).

Question: For `CN1C(=O)c2cc(NC(=O)c3ccc(Cl)cc3)ccc2OC[C@@H]2O[C@@H](CC(=O)NCc3cccc(F)c3)CC[C@H]21`, which activity change, negative = cytotoxicity is on record?
Answer: Its activity change, negative = cytotoxicity is -5.64% (inactive).

Question: For `CCc1ccc(Cn2ncc3c(C(=O)O)cc(C)nc32)cc1`, which activity change, negative = cytotoxicity is on record?
Answer: The activity change, negative = cytotoxicity was -2.66% (inactive).

Question: With `C[C@@H]1CN([C@H](C)CO)C(=O)c2cc(NS(=O)(=O)c3ccc(Cl)cc3)ccc2O[C@@H]1CN(C)Cc1ccc(Cl)c(Cl)c1` as the compound, how does the activity change, negative = cytotoxicity read?
Answer: The activity change, negative = cytotoxicity was -9.51% (inactive).

Question: For `COc1ccc(/C=C2\Oc3ccccc3C2=O)cc1`, which activity change, negative = cytotoxicity is on record?
Answer: Its activity change, negative = cytotoxicity is 7.88% (inactive).

Question: For `O=C(Nc1ccc(NC(=O)c2cc3ccccc3o2)cc1)c1ccc2c(c1)OCCO2`, which activity change, negative = cytotoxicity is on record?
Answer: Its activity change, negative = cytotoxicity is 7.63% (inactive).

Question: With `CN(C)Cc1c(O)ccc2c1O/C(=C\C=C\c1ccccc1)C2=O` as the compound, how does the activity change, negative = cytotoxicity read?
Answer: Its activity change, negative = cytotoxicity is -32.1% (inactive).

Question: With `C[C@H](CO)N1C[C@H](C)[C@H](CN(C)Cc2ccc(C(F)(F)F)cc2)Oc2c(NS(=O)(=O)c3ccc(Cl)cc3)cccc2C1=O` as the compound, how does the activity change, negative = cytotoxicity read?
Answer: The activity change, negative = cytotoxicity was -9.18% (inactive).

Question: With `CN(C)c1ccc(-c2ccnc3c2CC(C)(C(=O)NCc2ccco2)O3)cc1` (stereo not drawn) as the compound, how does the activity change, negative = cytotoxicity read?
Answer: The activity change, negative = cytotoxicity was -32.8% (inactive).

Question: For `CCN1CCN(/C=N/c2nc3c(s2)CCCC3)CC1`, which activity change, negative = cytotoxicity is on record?
Answer: Its activity change, negative = cytotoxicity is -6.91% (inactive).

Question: For `C/C=C/c1ccc(C2[C@@H]3CN(C(=O)Cc4ccccc4)C[C@H]2N3)cc1` (stereo partly drawn), which activity change, negative = cytotoxicity is on record?
Answer: The activity change, negative = cytotoxicity was 18% (inactive).

Question: For `Cc1cc(-c2nc3ccccc3s2)ccc1N`, which activity change, negative = cytotoxicity is on record?
Answer: Its activity change, negative = cytotoxicity is -28% (inactive).

Question: For `COc1ccc(NC(=O)c2cc3ccccc3oc2=O)cc1`, which activity change, negative = cytotoxicity is on record?
Answer: Its activity change, negative = cytotoxicity is -17.4% (inactive).

Question: With `COc1cc(/C=N/NS(=O)(=O)c2ccc3ccccc3c2)ccc1OCc1ccc(C(=O)O)cc1` as the compound, how does the activity change, negative = cytotoxicity read?
Answer: The activity change, negative = cytotoxicity was -17.5% (inactive).

Question: With `C[C@@H]1CN([C@@H](C)CO)C(=O)c2cccc(NC(=O)Nc3ccccc3)c2O[C@@H]1CN(C)Cc1ccc(-c2ccccc2)cc1` as the compound, how does the activity change, negative = cytotoxicity read?
Answer: Its activity change, negative = cytotoxicity is -22.7% (inactive).

Question: With `COc1ccc(C2=Nn3c([n+](C)c4ccccc43)SC2)cc1` as the compound, how does the activity change, negative = cytotoxicity read?
Answer: The activity change, negative = cytotoxicity was -33.2% (inactive).

Question: For `CC(C)(C)c1ccc(Cn2c(=O)cnc3ccccc32)cc1`, which activity change, negative = cytotoxicity is on record?
Answer: The activity change, negative = cytotoxicity was -33.1% (inactive).

Question: For `O=C1c2ccccc2C(=O)N1CCCCNc1ccccc1`, which activity change, negative = cytotoxicity is on record?
Answer: Its activity change, negative = cytotoxicity is 4.32% (inactive).

Question: Which activity change, negative = cytotoxicity does the source give for `Cc1noc(C)c1NC(=O)Nc1ccc2c(c1)CC(=O)N([C@H](C)CO)C[C@@H](C)[C@@H](CN(C)Cc1ccc(Cl)c(Cl)c1)O2` here?
Answer: The activity change, negative = cytotoxicity was 56.7% (inactive).

Question: Which activity change, negative = cytotoxicity does the source give for `C/C(=N\OCc1cccc(C(=O)O)c1)c1ccc(Cl)cc1` here?
Answer: The activity change, negative = cytotoxicity was -6.62% (inactive).

Question: For `C=CCOc1ccccc1C(=O)/C=C1/C(=O)Nc2ccccc21`, which activity change, negative = cytotoxicity is on record?
Answer: The activity change, negative = cytotoxicity was -8.17% (inactive).

Question: With `C[C@@H]1CN([C@@H](C)CO)C(=O)Cc2cc(NC(=O)C3CCCCC3)ccc2O[C@H]1CN(C)Cc1ccc(C(=O)Nc2ccccc2N)cc1` as the compound, how does the activity change, negative = cytotoxicity read?
Answer: The activity change, negative = cytotoxicity was 7.97% (inactive).

Question: With `C[C@@H]1CN([C@H](C)CO)C(=O)c2cc(C#CCc3ccccc3)cnc2O[C@@H]1CN(C)Cc1cccc(F)c1` as the compound, how does the activity change, negative = cytotoxicity read?
Answer: Its activity change, negative = cytotoxicity is -3.37% (inactive).

Question: For `CCOc1ccc(C(c2c(NC(=O)c3ccccc3)sc(C)c2C)N2CCN(CCO)CC2)cc1` (stereo not drawn), which activity change, negative = cytotoxicity is on record?
Answer: Its activity change, negative = cytotoxicity is -15.2% (inactive).

Question: Which activity change, negative = cytotoxicity does the source give for `C[C@@H]1CN([C@@H](C)CO)C(=O)c2cccc(NC(=O)CCCCCC(=O)Nc3ccccc3N)c2O[C@@H]1CN(C)Cc1ccc(Oc2ccccc2)cc1` here?
Answer: The activity change, negative = cytotoxicity was -1.35% (inactive).

Question: With `CCOc1cc2[nH]c(=S)n(Cc3ccc(C(=O)NCCN(CC)CC)cc3)c(=O)c2cc1OCC` as the compound, how does the activity change, negative = cytotoxicity read?
Answer: The activity change, negative = cytotoxicity was -4.81% (inactive).

Question: For `Cc1ccc(N=C2NC(=O)/C(=C\c3cccs3)S2)cc1C`, which activity change, negative = cytotoxicity is on record?
Answer: The activity change, negative = cytotoxicity was -13% (inactive).
